Biological target: T1, 14-3-3ζ/ERRγ peptide (Homo sapiens, UniProt P63104)
T1 construct: made in house; host or cells: NiCo21 (DE3) E. coli
Experiment: FA peptide screen, 14-3-3ζ titration to client peptide and compound: ERRγ
Format: binding
Details: 250 μM compound, 100 nM peptide; +1 Cys
Method: Since the hub protein 14-3-3 binds to hundreds of phosphoprotein partners, selectivity of PPI stabilization is a major challenge. The interplay of chemical reactivity, and the topology and functionality of the composite binding pocket shaped by 14-3-3 and Tau potentially provide entries towards selective stabilization. […] Here, 14-3-3ζ was titrated to a constant concentration of client peptide (100 nM) and compound (250 μM) to determine the SF250μM values for the particular 14-3-3 PPI. A variety of 14-3-3 binding proteins was represented in this client panel whereby the size and hydrophobicity of the +1 amino acid were varied. […]
chromatography (HisTrap high performance cartridges, Cytiva). […] Dialyzed protein was concentrated to ∼40 mg/mL, analyzed by Q -Tof LC/MS, and aliquots were flash -frozen for storage at −80 °C. […]
0.1% (v/v) Tween20, 0.1% (w/v) BSA). […] Measurements were performed directly after plate preparation, using a Tecan SPARK plate reader at room temperature ( λex: 485±20 nm; λem: 535±25 nm; mirror: automatic; flashes: 30; settle time: 1 ms; gain: optimal; Z -position: calculated from well). […] All data were analyzed using GraphPad Prism (10.0.1) and fitted with a four -parameter logistic model (4PL) to determine binding affinities (dissociation constant, KD). […]
Fluorescence Anisotropy – peptide screen […]

T1 sequence (P63104 whole entry, other chains not shown): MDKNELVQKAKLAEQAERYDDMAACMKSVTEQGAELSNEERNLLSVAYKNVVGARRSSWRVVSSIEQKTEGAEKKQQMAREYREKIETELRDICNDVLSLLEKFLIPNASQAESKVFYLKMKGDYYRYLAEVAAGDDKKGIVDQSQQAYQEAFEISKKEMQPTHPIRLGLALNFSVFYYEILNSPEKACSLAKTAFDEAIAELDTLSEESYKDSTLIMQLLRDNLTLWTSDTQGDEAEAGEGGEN

Structure (SMILES): CCc1ccc(-c2nccn2-c2ccc(C=O)c(Br)c2)cc1 [Compound 18]
- stabilization of 14-3-3/ERRγ peptide (in words): did not show significant stabilizing activity
